According to patent publication US20220251569A1, “TREATMENT AND PREVENTION OF DISEASE MEDIATED BY WWP2” (National University of Singapore, priority 2019, published 2022):

What was measured:
[1] = system: primary renal fibroblasts; test: Cellular fibrosis assay (ACTA2 immunostaining) in TGFβ1-stimulated primary renal fibroblasts; format: cell-based, mice; conditions: compound 0.3 mM for 1 hour, then TGFβ1 stimulation 72 hours; fluorescence microscopy
Method: Primary renal fibroblasts were obtained from the renal cortex of mice. Minced renal cortex pieces (1-3 mm^3) were placed in 6 cm dishes with DMEM supplemented with 20% fetal bovine serum for less than 10 days to generate mice renal fibroblasts (P0), and passaged to P1 and P2 in DMEM supplemented with 10% fetal bovine serum for experiments. To mimic the in vivo activation of renal fibroblasts in fibrosis, cells were treated with human transforming growth factor-β1 (TGFβ1) (Sigma Aldrich, #T7039) at a concentration of 5 ng/μl for 72 hours.
To test the anti-fibrotic effect of candidate small-molecules, cells were treated with each compound (0.3 mM) for 1 hour, followed by stimulation with TGFβ1 before harvesting. After fixation with ice-cold acetone and blocking with 1% BSA for 30 min at RT, the slides were incubated with primary anti-smooth muscle a actin (ACTA2) antibody (ACTA2 is a widely recognised myofibroblast marker, indicating fibroblast activation) (Sigma-Aldrich, #A5228, 1:100) overnight at 4° C. Following washing steps, slides were incubated with Bovine Anti-Mouse IgG-CFL 488 secondary antibody (Santacruz Biotechnology, #sc-362256, 1:100) for 2 hours at RT. VectaShield Mounting Medium (Vector laboratories, #H-1200) with DAPI was used to stain the nuclei and the slides were covered by coverslip. Slides were imaged on Leica fluorescence microscope (Leica).

WWP2-N = molecular target: T1, WWP2-N (Homo sapiens, UniProt O00308); test: Octet RED binding assay to WWP2-N; conditions: compound at 250 μM, binding measured over 120 seconds, Octet RED96e
T1 construct: GST; made in house
T1 sequence (O00308 1-335 limits assumed): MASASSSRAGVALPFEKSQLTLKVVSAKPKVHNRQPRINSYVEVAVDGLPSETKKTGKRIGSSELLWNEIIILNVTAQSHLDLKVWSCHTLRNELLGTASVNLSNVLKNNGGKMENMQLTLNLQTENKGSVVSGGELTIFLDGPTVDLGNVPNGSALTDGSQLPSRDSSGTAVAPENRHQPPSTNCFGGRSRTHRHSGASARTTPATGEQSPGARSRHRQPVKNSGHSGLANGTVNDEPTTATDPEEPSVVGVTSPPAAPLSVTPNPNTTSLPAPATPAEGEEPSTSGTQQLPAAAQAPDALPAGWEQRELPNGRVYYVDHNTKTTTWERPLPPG
Method: (§1) The WWP2 isoforms WWP2-FL, WWP2-N and WWP2-C were expressed as a GST fusion protein in bacteria and purified using glutathione sepharose 4B resin (GE Healthcare) according to the manufacturer's instructions. Expression and purity of the expressed WWP2 proteins was analysed by Coomassie Blue staining of the gel after separation by SDS-PAGE and western blotting (WB).
(§2) Binding assays were performed using the Octet RED96e System (FortéBio Inc., Menlo Park, Calif.). WWP2-FL, WWP2-N and WWP2-C proteins were biotinylated using NHS-PEO4-biotin (Pierce). Super-streptavidin (SSA) biosensors (FortéBio Inc., Menlo Park, Calif.) were coated in a solution containing 1 μM of biotinylated protein for 4 hours at 25° C. A duplicate set of sensors were incubated in assay buffer (1× kinetics buffer of ForteBio Inc.) with 5% DMSO without protein, for use as a background binding control. Both sets of sensors were blocked with a solution of 10 ug/ml Biocytin for 5 minutes at 25° C. A negative control of 5% DMSO was also used.
(§3) Binding of samples containing the different compounds (at a concentration of 250 μM) to coated and uncoated reference sensors was measured over 120 seconds. Analysis of the data was performed using a double reference subtraction (sample and sensor references) in the FortéBio data analysis software. […]

WWP2-C = molecular target: T2, WWP2-C (Homo sapiens, UniProt O00308); test: Octet RED binding assay to WWP2-C; conditions: compound at 250 μM, binding measured over 120 seconds, Octet RED96e
T2 construct: GST; made in house
T2 sequence (O00308 440-870 limits assumed): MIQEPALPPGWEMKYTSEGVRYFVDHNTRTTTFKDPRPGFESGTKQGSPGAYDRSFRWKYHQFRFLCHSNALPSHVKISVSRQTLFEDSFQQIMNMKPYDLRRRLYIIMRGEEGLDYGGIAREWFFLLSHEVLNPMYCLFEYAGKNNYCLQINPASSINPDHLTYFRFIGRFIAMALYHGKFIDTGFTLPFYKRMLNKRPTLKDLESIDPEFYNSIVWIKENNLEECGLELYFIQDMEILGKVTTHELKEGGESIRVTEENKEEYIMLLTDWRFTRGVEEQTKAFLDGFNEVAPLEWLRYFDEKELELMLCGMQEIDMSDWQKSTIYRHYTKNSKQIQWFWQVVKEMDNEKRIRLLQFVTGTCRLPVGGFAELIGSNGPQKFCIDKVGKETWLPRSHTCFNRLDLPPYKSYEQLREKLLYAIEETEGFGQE
Method: as §1, §2, §3

Binding level (nm) to WWP2 N isoform (WWP2-N): 0.1253 nm
Binding level (nm) to WWP2 C isoform (WWP2-C): 0.0061 nm
SMILES: COc1ccc(-n2c(=O)c3c4c(sc3n(CC(=O)NCc3ccco3)c2=O)CCC4)c(OC)c1 [EP1, 2-[11-(2,4-dimethoxyphenyl)-10,12-dioxo-7-thia-9,11-diazatricyclo[6.4.0.02.6]dodeca-1(8),2(6)-dien-9-yl]-N-(furan-2-ylmethyl)acetamide]
Anti-fibrotic response in renal fibroblasts (ACTA2 expression) [1]: reduced expression of ACTA2
